Patent US6455041B1, “Immunogenic epitopes of the human zona pellucida protein (ZP1)” (priority 1998, dated 2002)

What was measured:
[1] = system: antibodies from baboons immunized with HSZP; test: Biotinylated peptide assay, antisera from baboons immunized with porcine ZP (HSPZ); assay type: binding, baboon; settings: for peptide recognition by sera of individual baboons: four baboons (#1994, #2020, #2044, #2032) immunized with HSZP, sera 3 weeks after second booster, dilution 1/1000, FIGS. 2A-2D; for peptide recognition by baboon serum pool: pooled antisera from baboons immunized with HSZP, TiterMax adjuvant, FIG. 1C
Procedure: Lyophilized porcine ZP immogen was prepared and solubilized in 0.1 M sodium carbonate, pH 9.6 and heated at 60° C. for ten minutes as previously described (42, 45). Immunogen was emulsified in Titer Max adjuvant (50%) by passage through syringes with 19 gauge needles connected by tygon tubing. Animals were sedated with Ketarmine (10 mg/kg) prior to injection with 200 μl containing ^150 μg ZP immunogen (primary and boosts). Animals were immunized and boosted at 3 week and 6 week intervals.
Blood samples were collected at approximately 3 week intervals following the booster injections, and were obtained from femoral veins under Ketamine sedation. Serum was isolated by conventional methods an conveyed frozen to the U.S.A. laboratory facility for analysis. For the present studies, serum samples taken at three weeks following the second booster injection were used. The ELISA assay previously described by Drell and Dunbar, 1984 (46) was used to determine the levels of antibody against immobilized HSPZ. Antisera previously obtained from baboons immunized against electrophoretically purified porcine ZP1 (35) were used as a positive control for these assays. Nonimmune sera from animals immunized with adjuvant alone were used as a negative control.
(§1) Peptides containing 15 amino acid residues, which overlapped by 9 amino acids, were designed to ensure that all potential epitopes would be identified. Biotinylated peptides (BP) containing 15-mers with a 9-amino acid overlap were synthesized by Chiron Mimotopes Pty. Ltd. (Victoria, Australia).
(§2) For the assay, streptavidin (Sigma Chemicals, S-4762) was diluted to 5 μg/ml in deionized water and dispensed at 100 μl well into 96-well microtiter plates (Immulon 2, Dynatech Labs) and plates are incubated overnight at 32° C. to evaporate to complete dryness. Plates were then rinsed four times in wash buffer of pH 7.3, consisting of 0.02M sodium phosphate containing 0.15M NaCl and 0.05% Tween 20. The plates were blocked using 200 μl 0.02M sodium phosphate buffered saline (PBS) containing 2% nonfat dried milk (pH 8.8) for 2 hours at room temperature and the rinse was repeated. Blocking and all incubations were carried out using a Minimix shaker (Fisher). Biotinylated peptides were then dispensed such that the final: dilution of each was 1:10,000 and was made in wash buffer containing 2% nonfat dried milk. Peptides (100 μl per well) were incubated overnight at 4° C. on the shaker.
Initially, each peptide was solubilized in 200 μl of DMSO per manufacturers' instructions and stored this long term at −80° C. Approximately 2 μl was used to make a 1:5,000 stock solution diluted in PBs containing 0.1% BSA and 0.1% sodium aside. These stocks were then stored at −20° C. and are diluted 1:10,000 for assays. […]

[2] = system: antibodies from rabbits immunized with heat solubilized, native porcine ZP proteins (HSZP); test: Biotinylated peptide assay, pooled antisera from rabbits immunized with porcine ZP (HSPZ); assay type: binding, rabbit; settings: Complete Freund's Adjuvant, FIG. 1B
Procedure: as §1
as §2, with “Peptides (100 μl per well) were incubated overnight at 4° C. on the shaker.” left out
(§3) After rinsing with blocking solution, 100 μl/well of antibody solution was added and plates incubated at RT for 2 hours with shaking. […] The plates were incubated at RT with shaking for 45 minutes and read in a Titertek Multiskan reader at 405 nm. […]

[3] = system: antibodies in sera of baboons administered electrophoretically purified, denatured porcine ZP proteins; test: Biotinylated peptide assay, sera from baboons immunized with chemically deglycosylated, electrophoretically purified porcine ZP proteins; assay type: binding, baboon; settings: two baboons immunized with deglycosylated, FIGS. 3A-3B
Procedure: as §1
as §2, with “Biotinylated peptides were then dispensed such that the final: dilution of each was 1:10,000 and was made in wash buffer containing 2% nonfat dried milk. Peptides (100 μl per well) were incubated overnight at 4° C. on the shaker.” left out
as §3
Additional sera from baboons administered electrophoretically purified, denatured porcine ZP proteins as the immunogen (35), were evaluated. […]

Row | Substance | peptide recognition by sera of individual baboons [1] | peptide recognition by baboon serum pool [1] | peptide recognition by rabbit serum pool [2] | peptide recognition by baboon sera [3]
1 | 54 (SGSGFPETQPGPLTLELQI; listed as Homo sapiens) [compound 54] | all four of the animals recognized | recognized by both serum pools | recognized by both serum pools | again recognized by the baboon sera
2 | 55 (SGSGGPLTLELQIAKDKNY; listed as Homo sapiens) [compound 55] | all four of the animals recognized | recognized by both serum pools | recognized by both serum pools | again recognized by the baboon sera
